From patent US10780090B2, “Heteroaryl compounds useful as inhibitors of SUMO activating enzyme” (Millennium Pharmaceuticals, Inc., priority 2014, dated 2020)

Target: recombinant human SAE enzyme (Homo sapiens (Human), UniProt Q9UBT2)
Assay: SAE HTRF enzyme assay
Format: biochemical
Details: for Percent Inhibition: Concentration 0.111 μM; for IC50: class symbols A/B/C
Summary of the method: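 Sumoylation of Ubc9-GST by SAE was followed at low ATP (0.5 μM), pH 7.5, 24° C. for 105 min. Product was detected by HTRF with antibody pairs against Flag and GST tags.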

Chain of recombinant human SAE enzyme (Q9UBT2 whole entry): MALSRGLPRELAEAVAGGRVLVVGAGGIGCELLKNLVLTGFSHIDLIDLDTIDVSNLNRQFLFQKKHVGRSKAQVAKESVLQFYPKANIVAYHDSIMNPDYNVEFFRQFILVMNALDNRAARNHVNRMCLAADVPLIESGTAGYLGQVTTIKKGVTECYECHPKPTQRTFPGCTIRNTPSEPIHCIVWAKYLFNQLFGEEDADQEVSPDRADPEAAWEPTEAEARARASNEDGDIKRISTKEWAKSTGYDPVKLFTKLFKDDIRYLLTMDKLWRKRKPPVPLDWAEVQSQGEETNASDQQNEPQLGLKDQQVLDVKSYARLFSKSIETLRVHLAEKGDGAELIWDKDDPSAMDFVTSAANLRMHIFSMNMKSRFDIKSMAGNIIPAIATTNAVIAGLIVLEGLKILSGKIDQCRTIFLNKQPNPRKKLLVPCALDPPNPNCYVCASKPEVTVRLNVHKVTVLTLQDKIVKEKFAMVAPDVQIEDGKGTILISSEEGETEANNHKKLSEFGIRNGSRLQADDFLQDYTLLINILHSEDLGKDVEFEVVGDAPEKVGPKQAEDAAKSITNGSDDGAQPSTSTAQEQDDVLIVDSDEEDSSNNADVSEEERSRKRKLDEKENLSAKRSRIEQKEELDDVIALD
Chain of recombinant human SAE enzyme (Q9UBE0 whole entry partner): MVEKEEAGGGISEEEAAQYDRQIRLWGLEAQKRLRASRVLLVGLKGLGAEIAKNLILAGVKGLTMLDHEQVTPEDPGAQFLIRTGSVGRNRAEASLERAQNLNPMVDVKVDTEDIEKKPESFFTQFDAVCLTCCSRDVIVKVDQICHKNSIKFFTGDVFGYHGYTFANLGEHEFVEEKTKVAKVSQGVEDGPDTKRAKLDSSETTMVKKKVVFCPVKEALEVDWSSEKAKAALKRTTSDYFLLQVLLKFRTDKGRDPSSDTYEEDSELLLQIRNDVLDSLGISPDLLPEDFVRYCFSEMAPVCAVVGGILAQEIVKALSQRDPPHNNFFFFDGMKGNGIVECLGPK

SMILES	Percent Inhibition	IC50 [µM]
NS(=O)(=O)OC[C@H]1C[C@@H](Nc2ncncc2C(=O)c2cc([C@H](O)c3cc(Cl)ccc3Cl)c(Cl)s2)C[C@@H]1O (mixture of isomers) [I-149, [(1R,2S,4R)-4-{[5-({5-chloro-4-[(R)-(2,5-dichlorophenyl)(hydroxy)methyl]-2-thienyl}carbonyl)pyrimidin-4-yl]amino}-2-hydroxycyclopentyl]methyl sulfamate and [(1R,2S,4R)-4-{[5-({5-chloro-4-[(S)-(2,5-dichlorophenyl)(hydroxy)methyl]-2-thienyl}carbonyl)pyrimidin-4-yl]amino}-2-hydroxycyclopentyl]methyl sulfamate]	97	< 0.01
CC(O)(c1cccc(Cl)c1)c1ccc(C(=O)c2cncnc2NC2CC(O)C(COS(N)(=O)=O)C2)s1 (mixture of isomers) [I-152, [(1R,2S,4R)-4-{[5-({5-[(1R)-1-(3-chlorophenyl)-1-hydroxyethyl]-2-thienyl}carbonyl)pyrimidin-4-yl]amino}-2-hydroxycyclopentyl]methyl sulfamate and [(1R,2S,4R)-4-{[5-({5-[(1S)-1-(3-chlorophenyl)-1-hydroxyethyl]-2-thienyl}carbonyl)pyrimidin-4-yl]amino}-2-hydroxycyclopentyl]methyl sulfamate]	93	< 0.01
CN(C)C(c1cccc(Cl)c1)c1csc(C(=O)c2cncnc2NC2CC(O)C(COS(N)(=O)=O)C2)c1 (mixture of isomers) [I-153, [(1R,2S,4R)-4-{[5-({4-[(R)-(3-Chlorophenyl)(dimethylamino)methyl]-2-thienyl}carbonyl)pyrimidin-4-yl]amino}-2-hydroxycyclopentyl]methyl sulfamate and [(1R,2S,4R)-4-{[5-({4-[(S)-(3-chlorophenyl)(dimethylamino)methyl]-2-thienyl}carbonyl)pyrimidin-4-yl]amino}-2-hydroxycyclopentyl]methyl sulfamate]	86	0.01 to 0.1
NS(=O)(=O)OCC1CC(Nc2ncncc2C(=O)c2cc(C3(c4cccc(Cl)c4)CCCCO3)cs2)CC1O (mixture of isomers) [I-154, [(1R,2S,4R)-4-{[5-({4-[(2R)-2-(3-chlorophenyl)tetrahydro-2H-pyran-2-yl]-2-thienyl}carbonyl)pyrimidin-4-yl]amino}-2-hydroxycyclopentyl]methyl sulfamate and [(1R,2S,4R)-4-{[5-({4-[(2S)-2-(3-chlorophenyl)tetrahydro-2H-pyran-2-yl]-2-thienyl}carbonyl)pyrimidin-4-yl]amino}-2-hydroxycyclopentyl]methyl sulfamate]	95	< 0.01
NS(=O)(=O)OC[C@H]1C[C@@H](Nc2ncncc2C(=O)c2cc([C@@]3(C4CCCCC4)CCCO3)cs2)C[C@@H]1O (mixture of isomers) [I-166, [(1R,2S,4R)-4-{[5-({4-[(2S)-2-cyclohexyltetrahydrofuran-2-yl]-2-thienyl}carbonyl)pyrimidin-4-yl]amino}-2-hydroxycyclopentyl]methyl sulfamate and [(1R,2S,4R)-4-{[5-({4-[(2R)-2-cyclohexyltetrahydrofuran-2-yl]-2-thienyl}carbonyl)pyrimidin-4-yl]amino}-2-hydroxycyclopentyl]methyl sulfamate]	93	0.01 to 0.1
NS(=O)(=O)OC[C@H]1C[C@@H](Nc2ncncc2C(=O)c2cc([C@H](O)C3CCCCC3)c(Cl)s2)C[C@@H]1O (mixture of isomers) [I-172, [(1R,2S,4R)-4-{[5-({5-chloro-4-[(R)-cyclohexyl(hydroxy)methyl]-2-thienyl}carbonyl)pyrimidin-4-yl]amino}-2-hydroxycyclopentyl]methyl sulfamate and [(1R,2S,4R)-4-{[5-({5-chloro-4-[(S)-cyclohexyl(hydroxy)methyl]-2-thienyl}carbonyl)pyrimidin-4-yl]amino}-2-hydroxycyclopentyl]methyl sulfamate]	88	0.01 to 0.1
NS(=O)(=O)OC[C@H]1C[C@@H](Nc2ncncc2C(=O)c2cc([C@H](O)C3CCOCC3)c(Cl)s2)C[C@@H]1O (mixture of isomers) [I-174, [(1R,2S,4R)-4-{[5-({5-chloro-4-[(R)-hydroxy(tetrahydro-2H-pyran-4-yl)methyl]-2-thienyl}carbonyl)pyrimidin-4-yl]amino}-2-hydroxycyclopentyl]methyl sulfamate and [(1R,2S,4R)-4-{[5-({5-chloro-4-[(S)-hydroxy(tetrahydro-2H-pyran-4-yl)methyl]-2-thienyl}carbonyl)pyrimidin-4-yl]amino}-2-hydroxycyclopentyl]methyl sulfamate]	89	0.01 to 0.1
CC(C)[C@@H](O)c1cc(C(=O)c2cncnc2N[C@@H]2C[C@H](COS(N)(=O)=O)[C@@H](O)C2)sc1Cl (mixture of isomers) [I-195, [(1R,2S,4R)-4-{[5-({5-chloro-4-[(1R)-1-hydroxy-2-methylpropyl]-2-thienyl}carbonyl)pyrimidin-4-yl]amino}-2-hydroxycyclopentyl]methyl sulfamate and [(1R,2S,4R)-4-{[5-({5-chloro-4-[(1S)-1-hydroxy-2-methylpropyl]-2-thienyl}carbonyl)pyrimidin-4-yl]amino}-2-hydroxycyclopentyl]methyl sulfamate]	68	0.01 to 0.1
C=C(C)[C@@H](O)c1coc(C(=O)c2cncnc2N[C@@H]2C[C@H](COS(N)(=O)=O)[C@@H](O)C2)c1.C=C(C)[C@H](O)c1coc(C(=O)c2cncnc2N[C@@H]2C[C@H](COS(N)(=O)=O)[C@@H](O)C2)c1 (mixture of isomers) [I-197, {(1R,2S,4R)-2-Hydroxy-4-[(5-{4-[(1S)-1-hydroxy-2-methylprop-2-en-1-yl]-2-furoyl}pyrimidin-4-yl)amino]cyclopentyl)methyl sulfamate and {(1R,2S,4R)-2-Hydroxy-4-[(5-{4-[(1R)-1-hydroxy-2-methylprop-2-en-1-yl]-2-furoyl}pyrimidin-4-yl)amino]cyclopentyl}methyl sulfamate]	69	0.01 to 0.1
NS(=O)(=O)OC[C@H]1C[C@@H](Nc2ncncc2C(=O)c2cc([C@@]3(c4cccc(Cl)c4)CCCS3)cs2)C[C@@H]1O (mixture of isomers) [I-209, {(1R,2S,4R)-4-[(5-{[(2S)-2-(3-chlorophenyl)-2,3,4,5-tetrahydro-2,3′-bithiophen-5′-yl]carbonyl}pyrimidin-4-yl)amino]-2-hydroxycyclopentyl}methyl sulfamate and {(1R,2S,4R)-4-[(5-{[(2R)-2-(3-chlorophenyl)-2,3,4,5-tetrahydro-2,3′-bithiophen-5′-yl]carbonyl}pyrimidin-4-yl)amino]-2-hydroxycyclopentyl}methyl sulfamate]	45	0.1 to 1
C[C@@H]1CCCN(Cc2csc(C(=O)c3cncnc3N[C@@H]3C[C@H](COS(N)(=O)=O)[C@@H](O)C3)c2)C1 (mixture of isomers) [I-225, [(1R,2S,4R)-2-hydroxy-4-({5-[(4-{[(3R)-3-methylpiperidin-1-yl]methyl}-2-thienyl)carbonyl]pyrimidin-4-yl}amino)cyclopentyl]methyl sulfamate and [(1R,2S,4R)-2-hydroxy-4-({5-[(4-{[(3S)-3-methylpiperidin-1-yl]methyl}-2-thienyl)carbonyl]pyrimidin-4-yl}amino)cyclopentyl]methyl sulfamate]	33	0.1 to 1
C[C@H](O)c1cc(C(=O)c2cncnc2N[C@@H]2C[C@H](COS(N)(=O)=O)[C@@H](O)C2)sc1Cl (mixture of isomers) [I-226, [(1R,2S,4R)-4-{[5-({5-Chloro-4-[(1S)-1-hydroxyethyl]-2-thienyl}carbonyl)pyrimidin-4-yl]amino}-2-hydroxycyclopentyl]methyl sulfamate and [(1R,2S,4R)-4-{[5-({5-Chloro-4-[(1R)-1-hydroxyethyl]-2-thienyl}carbonyl)pyrimidin-4-yl]amino}-2-hydroxycyclopentyl]methyl sulfamate]	33	0.1 to 1
CN1CCC[C@]1(c1cccc(Cl)c1)c1csc(C(=O)c2cncnc2N[C@@H]2C[C@H](COS(N)(=O)=O)[C@@H](O)C2)c1 (mixture of isomers) [I-227, [(1R,2S,4R)-4-{[5-({4-[(2S)-2-(3-chlorophenyl)-1-methylpyrrolidin-2-yl]-2-thienyl}carbonyl)pyrimidin-4-yl]amino}-2-hydroxycyclopentyl]methyl sulfamate and [(1R,2S,4R)-4-{[5-({4-[(2R)-2-(3-chlorophenyl)-1-methylpyrrolidin-2-yl]-2-thienyl}carbonyl)pyrimidin-4-yl]amino}-2-hydroxycyclopentyl]methyl sulfamate]	23	0.1 to 1
NS(=O)(=O)OC[C@H]1C[C@@H](Nc2ncncc2C(=O)c2cc([C@@]3(C4CC4)CCCO3)cs2)C[C@@H]1O (mixture of isomers) [I-238, [(1R,2S,4R)-4-{[5-({4-[(2S)-2-cyclopropyltetrahydrofuran-2-yl]-2-thienyl}carbonyl)pyrimidin-4-yl]amino}-2-hydroxycyclopentyl]methyl sulfamate and [(1R,2S,4R)-4-{[5-({4-[(2R)-2-cyclopropyltetrahydrofuran-2-yl]-2-thienyl}carbonyl)pyrimidin-4-yl]amino}-2-hydroxycyclopentyl]methyl sulfamate]	25	0.1 to 1
